The target of data set [1] is T1, μ-opioid receptor (Mus musculus, UniProt P42866). Briefly: biochemical. Conditions: read-out: μ Emax, stimulation of [35S]GTPγS binding.
In data set [2] the target is T2, nociceptin (NOP) receptor (Homo sapiens, UniProt P41146). Briefly: biochemical. Conditions: read-out: NOP Emax, stimulation of [35S]GTPγS binding. On the technique in general: GTPγS is a poorly hydrolysed GTP analogue; its binding reports G protein activation.
Data set [3] has as its target T1, μ-opioid receptor.
Data set [4] concerns the target T2, nociceptin (NOP) receptor. Description: Inhibition of basal [35S]GTPγS binding. Format: biochemical. Conditions: read-out: NOP Emax, inhibition of basal [35S]GTPγS binding.
Data set [5] deals with T1, μ-opioid receptor. Description: biochemical. Conditions: read-out: μ Emax, inhibition of basal [35S]GTPγS binding.
For data set [6] the following is noted: human liver microsomes.

Where two headings read alike, the source gives them in different places.

T1 sequence (P42866 whole entry): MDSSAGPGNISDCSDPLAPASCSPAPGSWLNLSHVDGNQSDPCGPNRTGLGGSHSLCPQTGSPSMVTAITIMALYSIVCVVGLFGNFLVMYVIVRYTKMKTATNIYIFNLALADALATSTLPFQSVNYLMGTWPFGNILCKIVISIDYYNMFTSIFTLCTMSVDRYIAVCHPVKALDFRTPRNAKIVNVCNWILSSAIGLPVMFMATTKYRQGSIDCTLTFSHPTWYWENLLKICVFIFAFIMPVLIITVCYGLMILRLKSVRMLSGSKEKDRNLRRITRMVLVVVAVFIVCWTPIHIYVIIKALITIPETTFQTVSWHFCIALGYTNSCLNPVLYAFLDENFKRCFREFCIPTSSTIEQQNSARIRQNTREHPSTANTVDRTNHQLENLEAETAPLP
T2 sequence (P41146 whole entry): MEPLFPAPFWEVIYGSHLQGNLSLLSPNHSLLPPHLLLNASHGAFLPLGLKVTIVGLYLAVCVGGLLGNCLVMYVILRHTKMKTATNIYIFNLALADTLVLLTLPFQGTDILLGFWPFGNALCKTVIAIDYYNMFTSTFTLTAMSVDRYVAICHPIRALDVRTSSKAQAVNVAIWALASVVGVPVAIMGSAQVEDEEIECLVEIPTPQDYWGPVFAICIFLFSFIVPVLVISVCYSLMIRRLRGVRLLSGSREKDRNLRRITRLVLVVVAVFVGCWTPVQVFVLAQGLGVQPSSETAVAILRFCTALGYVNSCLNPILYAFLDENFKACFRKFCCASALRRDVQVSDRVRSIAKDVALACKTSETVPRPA

In the case of `O=C(N[C@@H]1CC[C@@]2(O)[C@H]3Cc4ccc(O)c5c4[C@@]2(CCN3CC2CC2)[C@H]1O5)c1ccc(Cl)c(Cl)c1.O=C(O)C(=O)O` [Compound 9], the maximal response (Emax) is 80 to 85% at μ-opioid receptor [1], 0% in data set [2], 87 ± 6.9% in data set [4] and 0% on μ-opioid receptor [5]. At μ-opioid receptor [3], the “μ Emax, stimulation of [35S]GTPγS binding” value worked out at 85 ± 7.4%.
As to `O=C(N[C@@H]1CC[C@@]2(O)[C@H]3Cc4ccc(O)c5c4[C@@]2(CCN3CC2CC2)[C@H]1O5)c1ccc(Br)cc1.O=C(O)C(=O)O` [Compound 6, 17-Cyclopropylmethyl-3,14β-dihydroxy-4,5α-epoxy-6β-[(4′-bromo)benzamido] morphinan], in data set [6], the “Change of N-oxide formation rate upon going from pH 7.4 to pH 10” value is listed as “doubled”.

Usually Emax stands for the size of the effect at its maximum, as opposed to the concentration needed.

These data come from article PMC2915928 (Bioorganic & medicinal chemistry, 2009).
